Results: patent US9474814B2, “Differential evaporation potentiated disinfectant system” (XY, LLC, priority 2007, dated 2016)
Where two headings read alike, the source gives them in different places.

Experiments:
[1] = Relative evaporation rates; type: physicochemical; conditions: BuAc (reference) = 1.00
Excerpt: (§1) Line C represents the change in fluid volume of a 20% (v/v) solution of diacetone alcohol in water caused by evaporation (a particular embodiment of the inventive differential evaporation antimicrobial composition), while line D represents the change in fluid phase concentration of the same 20% (v/v) diacetone alcohol in water occurring during the same fluid volume change. In this case, complete evaporation can occur in approximately 75 time units. Comparatively, the 20% (v/v) diacetone alcohol in water can be engaged with a population of microorganisms for a greater duration of time than the conventional antimicrobial composition without reapplication of an additional amount because evaporation occurs at a slower rate as shown by Table 3.

[2] = Evaporation of fluid volume over time (FIG. 2); type: physicochemical; conditions: 20% (v/v) in water
Excerpt: as §1
By comparison, Line C represents the change in fluid volume of a 20% (v/v) solution of diacetone alcohol in water, while line D represents the change in concentration of diacetone alcohol in water. As to this non-limiting example, if 10% diacetone alcohol (v/v) is the minimum concentration to provide an antimicrobial composition, then the entire 75 time units provide an antimicrobial composition because the concentration of diacetone alcohol increases over the 75 time units in accordance with embodiments of differential evaporation potentiated antimicrobial compositions.

[3] = test system: Staphylococcus aureus (ATCC 6538), Pseudomonas aeruginosa (ATCC 9027), Salmonella Choleraesuis (ATCC 13312); test: Coverslip assay: composition applied to dried bacteria on glass coverslips, evaporated to dryness, nutrient agar contact; type: cell-based
Method: These bacteria cultures can be diluted to obtain concentrations of about 10^7 through about 10^3 CFU/ml and 10 μl of each dilution can be spread onto a glass coverslip with a sterile loop and allowed to dry. Afterwards, the coverslips containing 10^5 to 10^2 CFU can be placed inside of petri dish. Different concentrations of the amount of substance can be applied to the cover slips with a nebulizer as described by Germicidal Spray Products as Disinfectants, Method 961.02, AOAC International (2004). As a non-limiting example, isopropyl alcohol (IPA) and diacetone alcohol (DAA) can be assessed as above described by obtaining aqueous mixtures of IPA at concentrations of 55% w/w, 20% w/w, and 5% w/w. […] A nutrient agar lightly pressed against the coverslips allows contact of microorganisms on the coverslips with the nutrient agar. The nutrient agar can be incubated for 48 hours at 37° C. in contact with the coverslips and then observed for microbial reproduction in the region where the coverslips contact the nutrient agar. Untreated coverslips can be used as a positive control. Particular examples of utilizing the method are set forth below.

[4] = test system: Staphylococcus aureus (ATCC 6538); test: Potentiation Assay (non-evaporative vs evaporative procedure); type: cell-based; conditions: for Evaporated Log 10 Reduction: evaporated in centrifuge 60 minutes; for Non-evaporated Log 10 Reduction: set 60 minutes
Method: Now referring primarily to Table 5 and FIG. […] The non-evaporative and evaporative procedures included 50 μL of an overnight Staphylococcus aureus (ATCC 6538, ˜10^9 CFU/mL) culture added to each 2 mL sterile plastic vial with a conical bottom and dried without capping in a centrifuge for 30 minutes. One hundred microliters of the solution being tested was added to each vial (as triplicate vials) either let set for 60 minutes (non-evaporative) or evaporated in a centrifuge for 60 minutes (evaporative), with time to evaporate being determined by each DAA mixtures own evaporative characteristic. To the non-evaporated vials, 400 μL Mueller Hinton Broth (MHB) was added to the vial and 100 μL was plated onto Nutrient agar (NA). To the evaporated vials, 500 μL of MHB was added and 100 μL was plated onto NA. Plates were incubated overnight at ˜37° C. and counted (the “Potentiation Assay”).

[5] = n-octanol/water; cited from earlier work
[6] = cited from earlier work
[7] = neat substance; BuAc (reference) = 1.00; cited from earlier work
[8] = 6% v/v active component, 94% water
[9] = 10% v/v active component, 90% water
[10] = 3% v/v active component, 97% water
[11] = 15% v/v active component, 85% water
[12] = azeotrope in water, Table 2, listed as Diacetone Alcohol

Relative Evaporation Rates (estimated) ([1]; 20% (v/v)): 0.31
Relative Evaporation Rates (estimated) ([1]; 40% (v/v)): 0.27
complete evaporation [2]: approximately 75 time units
SMILES: CC(=O)CC(C)(C)O [DAA, 4-hydroxy-4-methyl-2-pentanone]
Evaporated from coverslip [3, 8]: X (denotes a plate where the number of colonies represented less than 50% of the number of colonies counted in the corresponding positive control plate, representing reduction of the number of microorganisms (<2 Log10 reduction).)
Evaporated from coverslip [3, 9]: XX (denotes a plate where the number of colonies represented less than 10% of the number of colonies counted in the corresponding positive control plate, representing a significant reduction of the number of microorganisms (>3 Log10 reduction).)
Evaporated from coverslip ([3]; 60% v/v active component, 40% water): XXX (denotes a plate in which zero colonies were present, representing complete reduction of the number of microorganisms (>5 Log10 reduction).)
reduction of populations of microorganisms, comparison ([3]; concentrations at which water evaporated at a greater rate than DAA from the mixture): greater reduction of populations of microorganisms than 70% IPA (v/v)
Evaporated Log 10 Reduction [4, 10]: X (denotes a plate where the number of colonies represented less than 50% of the number of colonies counted in the corresponding positive control plate, representing reduction of the number of microorganisms (<2 Log10 reduction).)
Non-evaporated Log 10 Reduction [4, 10]: ---0--- (denotes a plate where the numbers of colonies represented more than 50% of the number of colonies counted in the corresponding positive control plate, representing no significant reduction in the population of viable microorganisms (0 to 1 Log10 reduction).)
Evaporated Log 10 Reduction [4, 8]: X (denotes a plate where the number of colonies represented less than 50% of the number of colonies counted in the corresponding positive control plate, representing reduction of the number of microorganisms (<2 Log10 reduction).)
Non-evaporated Log 10 Reduction [4, 8]: ---0--- (denotes a plate where the numbers of colonies represented more than 50% of the number of colonies counted in the corresponding positive control plate, representing no significant reduction in the population of viable microorganisms (0 to 1 Log10 reduction).)
Evaporated Log 10 Reduction [4, 9]: XX (denotes a plate where the number of colonies represented less than 10% of the number of colonies counted in the corresponding positive control plate, representing a significant reduction of the number of microorganisms (>3 Log10 reduction).)
Non-evaporated Log 10 Reduction [4, 9]: ---0--- (denotes a plate where the numbers of colonies represented more than 50% of the number of colonies counted in the corresponding positive control plate, representing no significant reduction in the population of viable microorganisms (0 to 1 Log10 reduction).)
Evaporated Log 10 Reduction [4, 11]: XXX (denotes a plate in which zero colonies were present, representing complete reduction of the number of microorganisms (>5 Log10 reduction).)
Non-evaporated Log 10 Reduction [4, 11]: XXx (denotes a plate where the number of colonies represented less than 1% of the number of colonies counted in the corresponding positive control plate, representing nearly complete reduction of the number of microorganisms (>4 Log10 reduction).)
evaporative potentiation of antimicrobial efficacy ([4]; evaporative vs non-evaporative procedure, concentrations tested in water): can be potentiated by evaporation
Log P [5]: about −0.14
azeotrope % mol/mol ([6]; azeotrope in water, Table 2): 2.2% mol/mol
azeotrope % vol/vol [6, 12]: 13.43% vol/vol
azeotrope % w/w [6, 12]: 12.70% w/w
azeotrope % w/w ([6]; azeotrope in water, Table 2, listed as diacetone alcohol): about 12.70 % w/w
azeotrope point ([6]; diacetone alcohol and water): about 12.7 grams per 100 grams of the com
Relative Evaporation Rates [7]: 0.14
